Measurements reported in patent US6479490B2, “3-indolyl-4-phenyl-1H-pyrrole-2,5-dione derivatives as inhibitors of glycogen synthase kinase-3β” (Syntex (U.S.A.) LLC, priority 2000, dated 2002).
Structures can show the parent of a compound that is named as a salt.

Assays:
[1] = target: T1, truncated form of recombinant rabbit GSK-3β enzyme (Oryctolagus cuniculus, UniProt G1T8E2); assay: Inhibition of Glycogen Synthase Kinase-3β, in vitro assay; format: biochemical; conditions: GSK-3β inhibition, 40 μM ATP, CREB-peptide substrate, 30° C. for 1 h
T1 construct: The construct was cloned in pGEX-3X vector; fused on or other part: GST tag at the N-terminus, inferred from the pGEX-3X vector and the glutathione sepharose 4B purification with glutathione elution
T1 sequence (G1T8E2 1-432): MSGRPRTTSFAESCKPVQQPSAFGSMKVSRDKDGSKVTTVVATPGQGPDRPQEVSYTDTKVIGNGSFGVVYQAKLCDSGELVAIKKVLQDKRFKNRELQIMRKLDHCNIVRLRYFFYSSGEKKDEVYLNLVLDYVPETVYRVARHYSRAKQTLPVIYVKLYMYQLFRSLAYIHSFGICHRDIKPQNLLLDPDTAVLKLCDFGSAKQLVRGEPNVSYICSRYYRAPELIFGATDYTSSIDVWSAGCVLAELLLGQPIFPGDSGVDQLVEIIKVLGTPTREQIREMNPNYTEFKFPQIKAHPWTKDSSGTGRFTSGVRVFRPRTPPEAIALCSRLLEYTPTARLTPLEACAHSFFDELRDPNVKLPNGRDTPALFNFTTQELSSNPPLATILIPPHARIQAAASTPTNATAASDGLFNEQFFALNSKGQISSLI
Experimental: The in vitro GSK-3β inhibitory activity of compounds of this invention was determined with a truncated form of recombinant rabbit GSK-3β enzyme.
The construct was cloned in pGEX-3X vector according to the procedure described in Wang, Q. M. et al., J. Biol. Chem. 269, 14566-14574 (1994). Ten amino acids at the N-terminus were deleted to obtain constitutively active GSK-3β ((see Murai H. et al., FEBS Lett. 392,153-60, (1996)). GSK-3β was expressed in BL21 DE3 cells. The cells were grown at 37° C. until they reached mid log phase and then induced with isopropyl-beta-(D)-thiogalactopyranoside (final concentration 0.4 mM) at 30° C. for 2 h. The cells were homogenized and the cell extract was loaded on a glutathione sepharose 4B column. GSK-3β was eluted with glutathione buffer (50 mM Tris pH 8 and 10 mM reduced glutathione). The eluate was collected in 3 minute fractions and assayed for GSK-3β content on a 10% SDS PAGE (polyacrylamide gel electrophoresis). Fractions above 20% peak height were pooled, aliquoted, and stored at −80° C. until used.
The GSK-3β […] was performed in 50 μl reactions in a 96 well polypropylene plate, each reaction containing 20 mM magnesium chloride, 40 μM ATP, 2 mM DTT, 88.5 μM biotinylated and phosphorylated CREB-peptide substrate (biotin-[…](PO4)YR-OH, see Wang, Q. M. et al., J. Biol. Chem. 269, 14566-14574 (1994)), [γ-^33P] ATP (1 μCi), and 2 μl of compounds of this invention in DMSO (various concentrations). 15 μl of GSK-3β (various concentrations) was added and the reaction mixture was incubated at 30° C. for 1 h. The reaction was stopped by transferring 25 μl of the reaction mixture to a phosphocellulose plate containing 130 μl of 1.85% phosphoric acid. The free radionucleotides in the membrane were washed off under vacuum with 1.85% phosphoric acid (5 times). After the last wash, the plate was transferred to an adoptor plate and 50 μl of scintillation cocktail (Microscint-20, Packard, cat. #20-133) was added to each well and the amount of radioactivity was counted in a top counter.

| SMILES | melting point [°C] | IC50 [1] [µM] |
| --- | --- | --- |
| Cn1cc(C2=C(c3cccc(NCCCO[Si](C)(C)C(C)(C)C)c3)C(=O)NC2=O)c2ccccc21 | 58 to 65 |  |
| Cn1cc(C2=C(c3cccc(OCCCO[Si](C)(C)C(C)(C)C)c3)C(=O)NC2=O)c2ccccc21 | 151.2 to 151.7 |  |
| Cn1cc(C2=C(c3cccc(OCCN)c3)C(=O)NC2=O)c2ccccc21 (as salt: hydrochloride) [II-1, 3-(1-methylindol-3-yl)-4-[3-(2-aminoethyloxy)phenyl]-1H-pyrrole-2,5-dione] | 182.4 to 187 |  |
| Cn1cc(C2=C(c3cccc(N4CCOCC4)c3)C(=O)NC2=O)c2ccccc21 (as salt: hydrochloride) [II-15, 3-(1-methylindol-3-yl)-4-(3-morpholin-4-ylphenyl)-1H-pyrrole-2,5-dione hydrochloride] | 205.3 to 212.6 |  |
| Cn1cc(C2=C(c3cccc(NCCO)c3)C(=O)NC2=O)c2ccccc21 (as salt: hydrochloride) [II-19, 3-(1-methylindol-3-yl)4-[3-(2-hydroxyethylamino)phenyl]-1H-pyrrole-2,5-dione] | 170.3 to 170.6 |  |
| Cn1cc(C2=C(c3ccccc3OCC3COC(C)(C)O3)C(=O)NC2=O)c2ccccc21 (racemic) [Compound I-2, 3-(1-methylindol-3-yl)-4-[2-((RS)-2,2-dimethyl-1,3-dioxolan-4-ylmethyloxy)phenyl]-1H-pyrrole-2,5-dione] | 220.8 to 221.2 |  |
| Cn1cc(C2=C(c3cccc(NCC(O)CO)c3)C(=O)NC2=O)c2ccccc21 (racemic) [II-9, 3-(1-methylindol-3-yl)-4-{3-[(2-(RS)-hydroxy-2-hydroxymethyl)ethylamino]phenyl}-1H-pyrrole-2,5-dione] | 160 to 163.5 |  |
| CC(CO)Nc1cccc(C2=C(c3cn(C)c4ccccc34)C(=O)NC2=O)c1 (racemic) [II-22, 3-(1-methylindol-3-yl)-4-[3-(2-hydroxy-1-methylethylamino)phenyl]-1H-pyrrole-2,5-dione] | 203.1 to 205.8 |  |
| O=C1NC(=O)C(c2cn(CCCO)c3ccc(F)cc23)=C1c1cccc(NCC(O)CO)c1 (racemic) [III-6, 3-{3-[(2,3-dihydroxypropyl)amino]phenyl}-4-[5-fluoro-1-(3-hydroxypropyl)-1H-indol-3-yl]-1H-pyrrole-2,5-dione] | 118 to 125 |  |
| Cn1cc(C2=C(c3cccc(OCC(O)CO)c3)C(=O)NC2=O)c2ccccc21 (stereo in doubt) [II-5, 3-(1-methylindol-3-yl)-4-{3-[((S)-2-hydroxy-2-hydroxymethyl)ethyloxy]-phenyl]-1H-pyrrole-2,5-dione] | 176.9 to 178.1 |  |
| Cn1cc(C2=C(c3cccc(OCC4COC(C)(C)O4)c3)C(=O)NC2=O)c2ccccc21 (stereo in doubt) [II-6, 3-(1-methylindol-3-yl)-4-[3-((R)-2,2-dimethyl-1,3-dioxolan-4-ylmethyloxy)phenyl]-1H-pyrrole-2,5-dione] | 220.8 to 221.2 |  |
| Cn1cc(C2=C(c3ccc(OCC(O)CO)cc3)C(=O)NC2=O)c2ccccc21 (stereo in doubt) [IV-6, 3-(1-methylindol-3-yl)-4-{4-[((R)-2-hydroxy-2-hydroxymethyl)ethyloxy]-phenyl}-1H-pyrrole-2,5-dione] | 220.3 to 222.7 |  |
| Cn1cc(C2=C(c3ccccc3OCC(O)CO)C(=O)NC2=O)c2ccccc21 (centres unmarked) [Compound I-1, 3-(1-methylindol-3-yl)-4-{2-[(-2-hydroxy-2-hydroxymethyl)ethyloxy]-phenyl}-1H-pyrrole-2,5-dione] | 245 to 247.1 | 0.194 |
| Cn1cc(C2=C(c3cccc(OCCN)c3)C(=O)NC2=O)c2ccccc21 [II-1, 3-(1-methylindol-3-yl)-4-[3-(2-aminoethyloxy)phenyl]-1H-pyrrole-2,5-dione] |  | 0.02 |
| Cn1cc(C2=C(c3cccc(OCCCN)c3)C(=O)NC2=O)c2ccccc21 [II-2, 3-(1-methylindol-3-yl)-4-[3-(3-aminopropyloxy)phenyl]-1H-pyrrole-2,5-dione] |  | 0.0264 |
| Cn1cc(C2=C(c3cccc(OC[C@H](O)CO)c3)C(=O)NC2=O)c2ccccc21 [II-3, 3-(1-methylindol-3-yl)-4-{3-[((R)-2-hydroxy-2-hydroxymethyl)ethyloxy]phenyl}-1H-pyrrole-2,5-dione] | 177.7 to 178 |  |
| Cn1cc(C2=C(c3cccc(OCCN4CCOCC4)c3)C(=O)NC2=O)c2ccccc21 [II-4, 3-(1-methylindol-3-yl)-4-[3-(2-morpholin-4-ylethyloxy)phenyl]-1H-pyrrole-2,5-dione] | 197.7 to 199 | 0.0296 |
| Cn1cc(C2=C(c3cccc(OC[C@H]4COC(C)(C)O4)c3)C(=O)NC2=O)c2ccccc21 [II-7, 3-(1-methylindol-3-yl)-4-[3-((S)-2,2-dimethyl-1,3-dioxolan-4-ylmethyloxy)phenyl]-1H-pyrrole-2,5-dione] | 186.8 to 187.4 |  |
| Cn1cc(C2=C(c3cccc(NC4COC(C)(C)OC4)c3)C(=O)NC2=O)c2ccccc21 [II-10, 3-(1-methylindol-3-yl)-4-[3-(2,2-dimethyl-1,3-dioxan-5-ylamino)phenyl]-1H-pyrrole-2,5-dione] | 201 to 203 |  |
| Cn1cc(C2=C(c3cccc(OCCCO)c3)C(=O)NC2=O)c2ccccc21 [II-20] | 150.2 to 152.6 |  |
| Cn1cc(C2=C(c3cccc(N4CCC(O)CC4)c3)C(=O)NC2=O)c2ccccc21 [II-29, 3-[3-(4-hydroxypiperidin-1-yl)phenyl]-4-(1-methyl-1H-indol-3-yl)-1H-pyrrole-2,5-dione] | 136 to 141 |  |
| O=C1NC(=O)C(c2c[nH]c3ccccc23)=C1c1cccc(OCCN2CCOCC2)c1 [III-3, 3-(1H-indol-3-yl)-4-[3-(2-morpholin-4-ylethoxy)phenyl]-1H-pyrrole-2,5-dione] |  | 0.23 |
| Cn1cc(C2=C(c3ccc(OC[C@@H]4COC(C)(C)O4)cc3)C(=O)NC2=O)c2ccccc21 [IV-1, 3-(1-methylindol-3-yl)-4-[4-((R)-2,2-dimethyl-1,3-dioxolan-4-ylmethyloxy)phenyl]-1H-pyrrole-2,5-dione] |  | 0.133 |
| CC(O)CCNc1ccc(C2=C(c3cn(C)c4ccccc34)C(=O)NC2=O)cc1 (centres unmarked) [IV-4] | 58 to 61.5 |  |
